“Also recorded” adds a separate entry of the source.
Experiments:
INS1 cells [1] = experiment: Anion radical superoxide (Mitosox); format: cell-based; details: 25 uM
Experimental: (§1) INS1 cells were treated for 24 h with SPB08007 (25 uM) or DMSO (0.1%). Mitochondrial membrane potential was analyzed cell by cell through TMRE staining corrected by Mitotracker Green (MTG). Cells were imaged using a 100× Plan Neofluar objective and the Airyscan module of a Zeiss LSM880 confocal microscope. […] Each experiment was repeated 2 times, 59-85 cells of each group were analyzed in each experiment for TMRE/MTG, and 48 fields were analyzed in each experiment for Mitosox analysis. *p<0.05 vs. DMSO; ***p<0.05 vs. DMSO and SPB08007.
Mitotracker Green Fluorescence, Anion Radical Superoxide and Mitochondrial Membrane Potential. INS1 cells were seeded into wells of a 96-wells glass bottom cell culture plate (CELLSTAR) at a density of 2*10^4 cells/well. To assess mitochondrial clearance, a pulse-chase experiment was performed. Briefly, cells were stained with MTG (Molecular Probes) 500 nM for 30 min, washed, and treated with (25 uM) or DMSO 0.1%. After 18 h, cells were imaged using a 40× lens of a Perkin Elmer Operetta high-content imaging system microscope. Results are expressed as the percentage of MTG fluorescence relative to MTG fluorescence of the “time 0” control. […] Integrated fluorescence of each field was analyzed in Image J after background subtraction and threshold (IsoData) application. Twenty-four fields of each condition were analyzed in each experiment.

INS1 cells [2] = experiment: Cell viability (XTT); format: cell-based; details: 25 μM, 24 hours exposure
Experimental: Cell Viability. Viability was measured using an XTT kit (Biological Industries), as recommended by the manufacturer. 30,000 cells were seeded in a flat 96-well plate. To each well 100 μl of growth media was added. The cells were incubated in a CO2 incubator at 37° C. In most cases, cells can be used to assay proliferation after 24-96 hours. Each test included a blank containing complete medium without cells as a background control. To prepare a reaction solution sufficient for one plate (96 wells), 0.1 ml activation solution was added to 5 ml XTT reagent. 50 μl of the reaction solution was added to each well and the plate was incubated in an incubator for 2-24 hours. Following the incubation, the plate was shacked gently to evenly distribute the dye in the wells and the absorbance of the samples was measured against a background control with a spectrophotometer (ELISA reader) at a wavelength of 480 nm. To determine non-specific readings we used a wavelength of 650 nm which we subtracted from the 480 nm measurement. The average absorbance of the blank control wells was finally subtracted from that of the other wells.
For all the experiment concerning cell viability, a kit of XTT reagent was used (Biological Industries).

INS1 cells [3] = experiment: Mitochondrial membrane potential (TMRE/MTG); format: cell-based; details: 25 uM, 24 h
Experimental: as §1
To assess mitochondrial membrane potential, INS1 cells were plated in each compartment of a quadrant imaging dish (Greiner Bio-One International) at a density of 1.2*10^5 cells/well. After 48 h, cells were incubated RPMI-1640 containing 25 μM of compound A or vehicle (0.1% DMSO). After 18h, the cells were stained in RPMI-1640 media containing 200 nM MitoTracker Green (MTG) and 15 nM of Tetramethylrhodamine, ethyl ester (TMRE); cells were then washed three times and finally kept in RPMI-1640 containing TMRE but lacking MTG. Live-Imaging was performed using a 63× Plan Neofluar objective and the Airyscan module of a Zeiss LSM880 confocal microscope. The mitochondrial membrane potential was analyzed by TMRE fluorescence corrected by MTG, using the Fiji/ImageJ software.

INS1 cells [4] = experiment: Lipotoxicity (palmitate) protection and recovery; format: cell-based
Experimental: In FIGS. 4A and 4B: INS1 cells were treated with either DMSO (control), SPB08007 (25 μM), or MWP00839 (25 μM) for 18 hours and were subjected to an Oxygen consumption rate (OCR) test. Viability test (using XTT staining) was determined after 24 hours exposure. […] In FIG. 4C: INS1 cells were treated with 400 μM palmitate (1:5 BSA palmitate) for 24 hours and were then let to recover in presence or absence of SPB08007 (“SBP”) for 18 hours. n=4 (paired t-test).
To address the potential beneficiary effect of mitochondrial clearance by SPB08007 (compound of structural Formula 6), we employed lipotoxicity, a model that we have previously reported to impair autophagy and mitochondrial clearance by alkalization of the lysosomes (Las, G., et al., Fatty acids suppress autophagic turnover in beta-cells. J Biol Chem, 2011.286 (49): p. 42534-44).

INS1 cells [5] = tested on: INS1 cells
INS1 cells [6] = experiment: Mitochondrial morphology (aspect ratio, circularity); format: cell-based; details: 25 uM, 24 h
Experimental: INS1 cells were treated with SPB08007 (25 uM) or DMSO (0.1%) for 24 h. Mitochondria were stained with Mitotracker Green and TMRE (images represented in FIG. 10). MTG fluorescence was used to calculate Aspect Ratio (AR) (FIG. 16A) and circularity (FIG. 16B) of mitochondrial structures.

anion radical superoxide formation (Mitosox) (INS1 cells [1]): unaffected
Structure (SMILES): CC(=O)N/C(=C\c1sc2ccccc2c1C)C(=O)O [SPB08007]
viability (XTT) (INS1 cells [2]): did not affect viability; also recorded: comparable to DMSO control
mitochondrial membrane potential ψm (TMRE/MTG) (INS1 cells [3]): not reduced; also recorded: slightly, but significantly, raised
recovery after palmitate (INS1 cells [4]; 400 μM palmitate 24 hours, then 18 hours recovery with compound): slight but significant increase in recovery
protection from palmitate, co-treatment (INS1 cells [4]; co-treatment with palmitate for 18 hours): did not show any protection
OCR under oligomycin (INS1 cells [5]; 25 μM, 18 hours exposure): decreased as well
basal oxygen consumption rate (OCR) (INS1 cells [5]; 25 μM, 18 hours exposure): decreased
maximal OCR (under FCCP induction) (INS1 cells [5]; 25 μM, 18 hours exposure): decreased
ATP-linked oxygen consumption (INS1 cells [5]; 25 uM, 48 h): higher
glucose-stimulated mtOCR (INS1 cells [5]; 25 uM, 48 h): increased
mitochondrial coupling (oligomycin-sensitive respiration) (INS1 cells [5]; 25 uM, 48 h): conserving
spare respiratory capacity relative to basal respiration (INS1 cells [5]; 25 uM, 48 h): unchanged
basal mitochondrial oxygen consumption rate (mtOCR) (INS1 cells [5]; 25 uM, 48 h, 2 mM glucose): increased
maximum mtOCR (INS1 cells [5]; 25 uM, 48 h, after FCCP): increased
mitochondrial morphology (INS1 cells [6]): does not alter

— patent US20230002344A1, “NOVEL BENZOTHIOPHENE DERIVATIVES AND USE THEREOF FOR STIMULATING MITOCHONDRIAL TURNOVER” (NIBN, The National Institute For Biotechnology In The Negev …, priority 2019, published 2023)
